Results taken from patent US20070219212A1, “Pyranouidole Derivatives and the Use Thereof for the Treatment of Hepatitis C Virus Infection or Disease” (priority 2004, published 2007).
pIC50: −log10 of the molar value.

Tests used:
[1] = target: T1, NS5B from the BK strain (genotype 1b) (Hepatitis C virus genotype 1b, UniProt P26663); assay: Hepatitis C polymerase (NS5B, BK strain) inhibition, radioactive filter assay; assay type: biochemical; conditions: NS5B BK strain (genotype 1b)
T1 construct: NS5B from the BK strain (genotype 1b) is expressed in E coli as a protein in which the 21 C-terminal amino acids are replaced; made in house; host or cells: E. coli
Text: (§1) The ability of the compounds of the present invention to inhibit Hepatitis C Polymerase was established by the following experimental procedure:
NS5B from the BK strain (genotype 1b) is expressed in E coli as a protein in which the 21 C-terminal amino acids are replaced with a short linker and a hexahistidine tag ([…]). The purified protein is mixed with radioactive nucleotides and allowed to replicate a heteropolymeric RNA substrate, primed by an endogenous short hairpin, resulting in an approximately 760 nt product. The radioactive product is captured on a filter and quantitated after removal of the unincorporated nucleotides.
(§2) • 0.5M Na Phosphate buffer. Per liter, weigh 134 gr Na2HPO4.7H2O, add water to 900 ml. Adjust pH to 7.0 with phosphoric acid. Top off with water to 1 L. • Dilute nucleotides 1:1000 to 10 μM (GTP and CTP) or 1:100 to 100 μM (ATP and UTP) into RNase free water. Procedure: • (1) Compounds 10 μl at […] in 15% dimethylsulfoxide (DMSO) When starting from 100 μg/ml compound stock in 1% DMSO: Dispense 5 μl 30% DMSO per well Dispense 5 μl compound (100 μg/ml) per well. When starting from 50 μg/ml compound stock in 15% DMSO: Add 10 μl compound per well.
(§3) Add 20 μl enzyme mix into each well of the assay plate. Incubate compound and enzyme at room temperature for 15 minutes • (3) Template mix—prepare ahead
(§4) Spin down a tube of RNA (5 μg/tube stored in 75% ethanol and 0.3 M sodium acetate) in a microcentrifuge for 20 minutes at 4° C. One tube is enough for 1-1.5 plates. Remove as much ethanol from the tube as possible by inverting the tube. Be gentle, pellet RNA may not adhere to the tube. Vacuum dry the RNA. Resuspend the RNA by adding 1 ml of DEPC water, close the cap of the tube tightly. To dissolve RNA, incubate RNA solution on ice for ˜60 minutes and gently vortex. Spin briefly to ensure all RNA solution is down to the bottom of the tube before opening cap. Gently transfer RNA solution into a 5 ml or larger tube. Add another 3 ml of DEPC water (total 4 ml of volume).
(§5) Add the following volumes of reagents
(§6) Add 20 μl template mix per reaction (i.e. 20 ng of pOF per reaction or ˜3 nM) • (4) Incubate reaction at room temperature (22-25° C.) for 2 hours. • (5) Stop reaction by adding 50 μl of 170 mM EDTA.
(§7) Final concentration of EDTA is 85 mM. • (6) Prewet filters of Millipore multiscreen assay plate by adding 200 μl of 0.5 M sodium phosphate buffer, pH 7.0 into each well. Let stand at room temperature for 2-3 minutes. • (7) Place the multiscreen filter plate onto a Millipore Manifold and turn on vacuum to allow buffer to flow through. Turn off vacuum. Transfer 80 μl of the reaction product into each well of the filter plate. Let stand for 2-3 minutes. Turn on vacuum to filter reaction product. • (8) Turn off vacuum. Add 200 μl of 0.5 M sodium phosphate buffer, pH 7.0 into each well to wash filter. Turn on vacuum.
(§8) Repeat step (8) three more times. • (9) Remove polypropylene bottom. Spot dry filter at the bottom with paper towel. Air dry filter plate on a bench for 1 hour. Add 40 μl Super Mix scintillant. Seal top of the plate with a tape. Place plate into a Packard carrier or micro-beta carrier. • (10) Count plate using a Packard Topcount or micro-beta counter. Count (for example using Program 10) for ^33P in Top count or ^33P program in micro-beta.
(§9) See, Ferrari et al. 1999. J. Virology 73:1649-1654: “Characterization of soluble Hepatitis C virus RNA-dependent RNA polymerase expressed in E. coli and Takamizawa et al. 1991” and J. Virology 65:1105-1113: “Structure and characterization of the Hepatitis C virus genome isolated from human carriers,” both references are hereby incorporated by reference.

[2] = target: BB7 RNA-dependent RNA polymerase hepatitis C virus protein (Con1 HCV sequence) (Hepatitis C virus genotype 1b, UniProt Q9WMX2); assay: Hepatitis C polymerase (BB7) inhibition; assay type: biochemical
Text: For purposes of this invention, the term “BB7” denotes an RNA-dependent RNA polymerase hepatitis C virus protein sequence which is derived from HCV replicon. A discussion of BB7 and related technology can be found in Blight, K. et al. (2000) Science 290:1972-1974. BB7 can be licensed from Apath, LLC (893 North Warson Road, Saint Louis Mo. 63141, USA). BB7 is also referred to as Con1 HCV sequence and discussions of Con1 can be found in the following references: Lohmann, V. et al. (1999) Science 285:110-113; Pietschmann, T. et al. (2001) J. Virol. […]:1252-1264; Lohmann, V. et al. (2001) J. Virol. 75:1437-1449.
as §1, §2, §3, §4, §5, §6, §7, §8, §9

Chain of BB7 RNA-dependent RNA polymerase hepatitis C virus protein (Con1 HCV sequence) (Q9WMX2 2420-3010): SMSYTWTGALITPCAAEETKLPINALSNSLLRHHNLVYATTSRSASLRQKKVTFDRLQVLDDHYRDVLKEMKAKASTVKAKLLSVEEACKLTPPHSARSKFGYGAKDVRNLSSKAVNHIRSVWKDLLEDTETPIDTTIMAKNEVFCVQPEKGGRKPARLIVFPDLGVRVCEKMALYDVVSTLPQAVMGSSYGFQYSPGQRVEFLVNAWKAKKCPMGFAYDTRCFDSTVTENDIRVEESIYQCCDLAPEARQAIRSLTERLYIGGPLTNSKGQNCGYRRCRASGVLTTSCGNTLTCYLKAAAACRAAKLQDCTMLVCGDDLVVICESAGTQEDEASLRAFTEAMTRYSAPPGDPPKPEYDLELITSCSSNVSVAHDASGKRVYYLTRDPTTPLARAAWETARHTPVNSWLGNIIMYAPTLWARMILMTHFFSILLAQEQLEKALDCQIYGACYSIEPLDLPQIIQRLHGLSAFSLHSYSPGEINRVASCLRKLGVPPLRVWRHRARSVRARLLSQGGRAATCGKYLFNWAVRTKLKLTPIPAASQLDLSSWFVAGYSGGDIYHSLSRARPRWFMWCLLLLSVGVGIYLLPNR
T1 sequence (P26663 2420-2989): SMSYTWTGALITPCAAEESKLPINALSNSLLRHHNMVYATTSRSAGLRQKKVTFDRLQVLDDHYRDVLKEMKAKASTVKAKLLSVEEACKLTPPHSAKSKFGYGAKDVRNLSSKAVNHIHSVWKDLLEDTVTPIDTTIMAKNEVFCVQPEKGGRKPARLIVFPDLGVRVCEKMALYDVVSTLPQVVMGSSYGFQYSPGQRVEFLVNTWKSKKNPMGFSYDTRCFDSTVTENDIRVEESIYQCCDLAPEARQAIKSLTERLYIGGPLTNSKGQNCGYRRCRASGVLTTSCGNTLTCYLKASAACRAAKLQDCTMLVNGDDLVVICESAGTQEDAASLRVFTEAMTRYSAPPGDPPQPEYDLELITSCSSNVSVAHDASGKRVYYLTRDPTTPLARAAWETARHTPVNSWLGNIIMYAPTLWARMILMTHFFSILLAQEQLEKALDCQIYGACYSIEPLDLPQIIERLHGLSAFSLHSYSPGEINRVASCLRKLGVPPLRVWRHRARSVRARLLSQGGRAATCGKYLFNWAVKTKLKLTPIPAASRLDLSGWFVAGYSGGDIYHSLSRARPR

Row | SMILES | pIC50 [1] | pIC50 [2]
1 | CCCC1(CC(=O)O)OCCc2c1[nH]c1c(C)c(CO[C@H]3CCOC3)cc(C#N)c21 (mixture of isomers) [Example 13, (3′S,1S*)[5-Cyano-8-methyl-1-propyl-7-(tetrahydro-furan-3-yloxymethyl)-1,3,4,9-tetrahydro-pyrano[3,4-b]indol-1-yl]-acetic acid] | 5.30 to 6.30 | 5.30 to 6.30
2 | CCCC1(CC(=O)O)OCCc2c1[nH]c1c(C)c(CO[C@@H]3CCOC3)cc(C#N)c21 (mixture of isomers) [Example 14, (3′R,1S*)[5-Cyano-8-methyl-1-propyl-7-(tetrahydro-furan-3-yloxymethyl)-1,3,4,9-tetrahydro-pyrano[3,4-b]indol-1-yl]-acetic acid] | 5.30 to 6.30 | 5.30 to 6.30
3 | CCOCCOc1cc(C#N)c2c3c([nH]c2c1C)C(CC(=O)O)([C@@H](C)CC)OCC3 (mixture of isomers) [Example 33, (1R*,10S)-[1-sec-Butyl-5-cyano-7-(2-ethoxy-ethoxy)-8-methyl-1,3,4,9-tetrahydro-pyrano[3,4-b]indol-1-yl]-acetic acid] | > 6.30 | > 6.30
4 | CC[C@H](C)C1(CC(=O)O)OCCc2c1[nH]c1c(C)c(OCCOC(C)C)cc(C#N)c21 (mixture of isomers) [Example 34, (1R*,10S)-[1-sec-Butyl-5-cyano-7-(2-isopropoxy-ethoxy)-8-methyl-1,3,4,9-tetrahydro-pyrano[3,4-b]indol-1-yl]-acetic acid] | > 6.30 | > 6.30
5 | CC[C@H](C)C1(CC(=O)O)OCCc2c1[nH]c1c(C)c(OCc3nsc(N(C)C)n3)cc(C#N)c21 (mixture of isomers) [Example 35, (1R*,10S)-[1-sec-Butyl-5-cyano-7-(5-dimethylamino-[1,2,4]thiadiazol-3-ylmethoxy)-8-methyl-1,3,4,9-tetrahydro-pyrano[3,4-b]indol-1-yl]-acetic acid] | > 6.30 | > 6.30
6 | CCCC1(CC(=O)O)OCCc2c1[nH]c1c(C)c(CO)cc(C#N)c21 (stereo not shown) [Example 1, (5-Cyano-7-hydroxymethyl-8-methyl-1-propyl-1,3,4,9-tetrahydro-pyrano[3,4-b]indol-1-yl)-acetic acid] | > 6.30 | > 6.30
7 | CCCC1(CC(=O)O)OCCc2c1[nH]c1c(C)c(COC)cc(C#N)c21 (stereo not shown) [Example 2, (5-Cyano-7-methoxymethyl-8-methyl-1-propyl-1,3,4,9-tetrahydro-pyrano[3,4-b]indol-1-yl)-acetic acid] | 5.30 to 6.30 | > 6.30
8 | CCCC1(CC(=O)O)OCCc2c1[nH]c1c(C)c(COCC)cc(C#N)c21 (stereo not shown) [Example 3, (5-Cyano-7-ethoxymethyl-8-methyl-1-propyl-1,3,4,9-tetrahydro-pyrano[3,4-b]indo-1-yl)-acetic acid] | 5.30 to 6.30 | > 6.30
9 | CCCOCc1cc(C#N)c2c3c([nH]c2c1C)C(CCC)(CC(=O)O)OCC3 (stereo not shown) [Example 4, (5-Cyano-8-methyl-7-propoxymethyl-1-propyl-1,3,4,9-tetrahydro-pyrano[3,4-b]indol-1-yl)-acetic acid] | 5.30 to 6.30 | > 6.30
10 | CCCC1(CC(=O)O)OCCc2c1[nH]c1c(C)c(COC(C)C)cc(C#N)c21 (stereo not shown) [Example 5, (5-Cyano-7-isopropoxymethyl-8-methyl-1-propyl-1,3,4,9-tetrahydro-pyrano[3,4-b]indol-1-yl)-acetic acid] | 5.30 to 6.30 | > 6.30
11 | CCCC1(CC(=O)O)OCCc2c1[nH]c1c(C)c(COC3CCC3)cc(C#N)c21 (stereo not shown) [Example 6, (5-Cyano-7-cyclobutoxymethyl-8-methyl-1-propyl-1,3,4,9-tetrahydro-pyrano[3,4-b]indol-1-yl)-acetic acid] | 5.30 to 6.30 | > 6.30
12 | CCCC1(CC(=O)O)OCCc2c1[nH]c1c(C)c(COC3CCCCC3)cc(C#N)c21 (stereo not shown) [Example 7, (5-Cyano-7-cyclohexyloxymethyl-8-methyl-1-propyl-1,3,4,9-tetrahydro-pyrano[3,4-b]indol-1-yl)-acetic acid] | 5.30 to 6.30 | 5.30 to 6.30
13 | CCCC1(CC(=O)O)OCCc2c1[nH]c1c(C)c(COCC3CC3)cc(C#N)c21 (stereo not shown) [Example 8, (5-Cyano-7-cyclopropylmethoxymethyl-8-methyl-1-propyl-1,3,4,9-tetrahydro-pyrano[3,4-b]indol-1-yl)-acetic acid] | 5.30 to 6.30 | > 6.30
14 | CCCC1(CC(=O)O)OCCc2c1[nH]c1c(C)c(COCC3CCC3)cc(C#N)c21 (stereo not shown) [Example 9, (5-Cyano-7-cyclobutylmethoxymethyl-8-methyl-1-propyl-1,3,4,9-tetrahydro-pyrano[3,4-b]indol-1-yl)-acetic acid] | 5.30 to 6.30 | 5.30 to 6.30
15 | CCCC1(CC(=O)O)OCCc2c1[nH]c1c(C)c(COCC3CCCC3)cc(C#N)c21 (stereo not shown) [Example 10, (5-Cyano-7-cyclopentylmethoxymethyl-8-methyl-1-propyl-1,3,4,9-tetrahydro-pyrano[3,4-b]indol-1-yl)-acetic acid] | 5.30 to 6.30 | 5.30 to 6.30
16 | CC#CCOCc1cc(C#N)c2c3c([nH]c2c1C)C(CCC)(CC(=O)O)OCC3 (stereo not shown) [Example 11, (7-But-2-ynyloxymethyl-5-cyano-8-methyl-1-propyl-1,3,4,9-tetrahydro-pyrano[3,4-b]indol-1-yl)-acetic acid] | 5.30 to 6.30 | 5.30 to 6.30
17 | CCCC1(CC(=O)O)OCCc2c1[nH]c1c(C)c(COCc3ccc4c(c3)OCO4)cc(C#N)c21 (stereo not shown) [Example 16, [7-(Benzo[1,3]dioxol-5-ylmethoxymethyl)-5-cyano-8-methyl-1-propyl-1,3,4,9-tetrahydro-pyrano[3,4-b]indol-1-yl]-acetic acid] | 5.30 to 6.30 | > 6.30
18 | CCCC1(CC(=O)O)OCCc2c1[nH]c1c(C)c(COCc3ccc(C)cc3C)cc(C#N)c21 (stereo not shown) [Example 17, [5-Cyano-7-(2,4-dimethyl-benzyloxymethyl)-8-methyl-1-propyl-1,3,4,9-tetrahydro-pyrano[3,4-b]indol-1-yl]-acetic acid] | 5.30 to 6.30 | < 5.30
19 | CCCC1(CC(=O)O)OCCc2c1[nH]c1c(C)c(COCc3ccsc3)cc(C#N)c21 (stereo not shown) [Example 18, [5-Cyano-8-methyl-1-propyl-7-(thiophen-3-ylmethoxymethyl)-1,3,4,9-tetrahydro-pyrano[3,4-b]indol-1-yl]-acetic acid] | 5.30 to 6.30 | > 6.30
20 | CCCC1(CC(=O)O)OCCc2c1[nH]c1c(C)c(COCc3sc(C)nc3C)cc(C#N)c21 (stereo not shown) [Example 19, [5-Cyano-7-(2,4-dimethyl-thiazol-5-ylmethoxymethyl)-8-methyl-1-propyl-1,3,4,9-tetrahydro-pyrano[3,4-b]indol-1-yl]-acetic acid] | 5.30 to 6.30 | 5.30 to 6.30
